Data as given in PMC10175918 (Communications Biology, 2023).
Like-named read-outs stand apart in the source and are kept apart here.

Columns and labels:
Experiment in all cases: TGFα-shedding assay-based GPCR screening with chimeric Gα subunit proteins
Assay type in all cases: cell-based
348 GPCRs [1] = target: T1, 348 GPCRs (Homo sapiens, UniProt P25105)
T1 construct: expressed in transfected cells; host or cells: HEK293A

348 GPCRs [2] = target: T2, 348 GPCRs (Homo sapiens, UniProt O15218); settings: 10µM, Favipiravir 100μM
T2 construct: expressed in transfected cells; host or cells: HEK293A
T2 sequence (O15218 whole entry): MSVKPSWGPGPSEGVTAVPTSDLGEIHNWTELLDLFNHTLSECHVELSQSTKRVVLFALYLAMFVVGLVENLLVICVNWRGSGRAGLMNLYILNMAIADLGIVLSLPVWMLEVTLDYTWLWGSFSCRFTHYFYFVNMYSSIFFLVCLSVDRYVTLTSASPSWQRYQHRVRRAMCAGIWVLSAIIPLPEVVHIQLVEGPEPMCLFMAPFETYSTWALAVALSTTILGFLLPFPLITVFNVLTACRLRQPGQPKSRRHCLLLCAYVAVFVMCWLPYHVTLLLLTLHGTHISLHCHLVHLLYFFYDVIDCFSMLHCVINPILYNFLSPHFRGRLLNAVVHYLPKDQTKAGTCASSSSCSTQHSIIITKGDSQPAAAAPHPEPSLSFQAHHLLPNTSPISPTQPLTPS

348 GPCRs [3] = target: T3, 348 GPCRs (Homo sapiens, UniProt P47898); settings: 10µM, Favipiravir 100μM
T3 construct: expressed in transfected cells; host or cells: HEK293A
T3 sequence (P47898 whole entry): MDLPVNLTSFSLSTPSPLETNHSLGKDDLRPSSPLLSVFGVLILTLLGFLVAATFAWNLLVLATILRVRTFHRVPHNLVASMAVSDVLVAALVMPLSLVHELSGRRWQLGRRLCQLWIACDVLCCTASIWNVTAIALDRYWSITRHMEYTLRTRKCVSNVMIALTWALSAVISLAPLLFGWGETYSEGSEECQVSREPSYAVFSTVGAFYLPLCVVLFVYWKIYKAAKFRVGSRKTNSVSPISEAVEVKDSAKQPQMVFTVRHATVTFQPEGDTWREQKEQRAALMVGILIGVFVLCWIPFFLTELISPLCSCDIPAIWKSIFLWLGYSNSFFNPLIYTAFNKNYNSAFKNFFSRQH

348 GPCRs [4] = target: 348 GPCRs (Homo sapiens, UniProt Q8TDS4)
Chain of 348 GPCRs (Homo sapiens, UniProt Q8TDS4) (Q8TDS4 whole entry): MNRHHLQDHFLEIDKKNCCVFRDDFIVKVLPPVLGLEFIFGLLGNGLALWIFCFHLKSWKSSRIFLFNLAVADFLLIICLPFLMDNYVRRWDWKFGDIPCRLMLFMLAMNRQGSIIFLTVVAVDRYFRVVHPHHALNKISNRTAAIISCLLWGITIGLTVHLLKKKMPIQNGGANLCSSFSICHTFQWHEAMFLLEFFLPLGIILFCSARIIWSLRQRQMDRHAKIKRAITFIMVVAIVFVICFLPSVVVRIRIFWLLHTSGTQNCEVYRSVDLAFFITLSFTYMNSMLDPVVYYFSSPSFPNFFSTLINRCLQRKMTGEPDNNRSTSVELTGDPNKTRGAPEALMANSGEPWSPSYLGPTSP

348 GPCRs [5] = target: T4, 348 GPCRs (Homo sapiens, UniProt P47871); settings: 10µM, Favipiravir 100μM
T4 construct: expressed in transfected cells; host or cells: HEK293A
T4 sequence (P47871 26-477): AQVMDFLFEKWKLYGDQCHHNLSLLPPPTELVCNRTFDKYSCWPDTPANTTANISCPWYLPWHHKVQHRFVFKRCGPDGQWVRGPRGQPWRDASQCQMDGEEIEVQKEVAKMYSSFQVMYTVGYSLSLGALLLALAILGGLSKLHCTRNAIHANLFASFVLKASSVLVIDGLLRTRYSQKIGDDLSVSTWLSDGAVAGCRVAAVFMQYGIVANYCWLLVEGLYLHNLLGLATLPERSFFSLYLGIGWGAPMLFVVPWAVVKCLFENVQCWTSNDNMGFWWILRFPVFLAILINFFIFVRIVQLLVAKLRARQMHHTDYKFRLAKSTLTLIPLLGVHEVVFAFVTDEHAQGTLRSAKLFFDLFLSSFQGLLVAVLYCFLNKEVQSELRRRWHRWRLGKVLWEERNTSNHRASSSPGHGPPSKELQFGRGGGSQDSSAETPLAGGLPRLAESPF

348 GPCRs [6] = target: T5, 348 GPCRs (Homo sapiens, UniProt Q14833); settings: 10µM, Favipiravir 100μM
T5 construct: expressed in transfected cells; host or cells: HEK293A
T5 sequence (Q14833 33-912): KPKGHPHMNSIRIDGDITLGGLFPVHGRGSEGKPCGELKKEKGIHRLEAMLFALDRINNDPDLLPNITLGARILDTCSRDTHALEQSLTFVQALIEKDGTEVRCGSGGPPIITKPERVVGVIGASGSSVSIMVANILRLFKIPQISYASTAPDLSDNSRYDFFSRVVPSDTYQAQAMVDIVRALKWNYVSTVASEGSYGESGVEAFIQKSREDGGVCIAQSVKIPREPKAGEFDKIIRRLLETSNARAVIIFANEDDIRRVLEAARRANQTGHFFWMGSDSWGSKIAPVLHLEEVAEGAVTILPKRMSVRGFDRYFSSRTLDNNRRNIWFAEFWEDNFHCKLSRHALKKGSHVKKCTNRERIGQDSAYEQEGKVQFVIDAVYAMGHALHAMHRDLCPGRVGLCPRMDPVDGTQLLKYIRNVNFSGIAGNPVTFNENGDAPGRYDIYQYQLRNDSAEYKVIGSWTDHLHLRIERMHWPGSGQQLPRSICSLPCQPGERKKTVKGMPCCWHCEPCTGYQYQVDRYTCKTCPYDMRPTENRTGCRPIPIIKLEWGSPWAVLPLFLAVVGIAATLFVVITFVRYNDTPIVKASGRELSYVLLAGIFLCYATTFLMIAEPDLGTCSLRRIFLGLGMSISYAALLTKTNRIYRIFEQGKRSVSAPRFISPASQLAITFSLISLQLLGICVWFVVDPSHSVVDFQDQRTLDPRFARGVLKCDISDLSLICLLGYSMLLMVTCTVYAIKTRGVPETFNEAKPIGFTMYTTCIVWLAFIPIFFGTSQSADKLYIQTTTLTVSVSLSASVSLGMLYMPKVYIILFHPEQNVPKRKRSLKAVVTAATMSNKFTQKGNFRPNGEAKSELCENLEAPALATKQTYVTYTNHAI

348 GPCRs [7] = target: T6, 348 GPCRs (Homo sapiens, UniProt Q6QNK2); settings: 10µM, Favipiravir 100μM
T6 construct: expressed in transfected cells; host or cells: HEK293A
T6 sequence (Q6QNK2 26-874): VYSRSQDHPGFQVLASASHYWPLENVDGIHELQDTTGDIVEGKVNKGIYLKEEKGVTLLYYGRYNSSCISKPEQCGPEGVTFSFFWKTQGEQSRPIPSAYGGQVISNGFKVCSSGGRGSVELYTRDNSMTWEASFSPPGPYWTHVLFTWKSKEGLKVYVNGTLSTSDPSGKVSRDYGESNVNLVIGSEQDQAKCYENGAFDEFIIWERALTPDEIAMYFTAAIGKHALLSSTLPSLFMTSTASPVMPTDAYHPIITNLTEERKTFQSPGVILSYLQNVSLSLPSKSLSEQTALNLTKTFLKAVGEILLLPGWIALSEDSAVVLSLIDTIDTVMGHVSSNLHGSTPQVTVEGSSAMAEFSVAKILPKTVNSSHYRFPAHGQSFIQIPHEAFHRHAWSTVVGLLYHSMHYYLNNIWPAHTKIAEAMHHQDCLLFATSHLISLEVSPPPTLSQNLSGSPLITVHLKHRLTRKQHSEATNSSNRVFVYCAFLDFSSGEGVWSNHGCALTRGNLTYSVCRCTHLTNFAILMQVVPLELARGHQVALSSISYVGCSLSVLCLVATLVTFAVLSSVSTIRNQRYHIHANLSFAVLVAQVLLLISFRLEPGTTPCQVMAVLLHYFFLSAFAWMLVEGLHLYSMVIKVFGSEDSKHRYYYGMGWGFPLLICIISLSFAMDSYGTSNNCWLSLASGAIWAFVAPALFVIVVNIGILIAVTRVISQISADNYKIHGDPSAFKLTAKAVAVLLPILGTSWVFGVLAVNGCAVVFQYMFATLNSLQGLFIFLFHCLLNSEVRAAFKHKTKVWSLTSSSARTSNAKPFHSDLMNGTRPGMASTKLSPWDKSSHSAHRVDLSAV

348 GPCRs [8] = target: T7, 348 GPCRs (Homo sapiens, UniProt P32245)
T7 construct: expressed in transfected cells; host or cells: HEK293A
T7 sequence (P32245 whole entry): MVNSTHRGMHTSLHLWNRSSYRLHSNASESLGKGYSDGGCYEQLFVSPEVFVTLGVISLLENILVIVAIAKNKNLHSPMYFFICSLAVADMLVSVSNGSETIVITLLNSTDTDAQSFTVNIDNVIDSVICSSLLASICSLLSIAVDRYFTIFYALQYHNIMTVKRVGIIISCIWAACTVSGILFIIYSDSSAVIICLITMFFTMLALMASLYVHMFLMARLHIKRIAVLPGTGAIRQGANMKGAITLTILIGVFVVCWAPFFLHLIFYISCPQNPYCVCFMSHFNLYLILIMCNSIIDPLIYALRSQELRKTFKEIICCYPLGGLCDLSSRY

348 GPCRs [9] = target: T8, 348 GPCRs (Homo sapiens, UniProt P35414); settings: 10µM, Favipiravir 100μM
T8 sequence (P35414 1-380): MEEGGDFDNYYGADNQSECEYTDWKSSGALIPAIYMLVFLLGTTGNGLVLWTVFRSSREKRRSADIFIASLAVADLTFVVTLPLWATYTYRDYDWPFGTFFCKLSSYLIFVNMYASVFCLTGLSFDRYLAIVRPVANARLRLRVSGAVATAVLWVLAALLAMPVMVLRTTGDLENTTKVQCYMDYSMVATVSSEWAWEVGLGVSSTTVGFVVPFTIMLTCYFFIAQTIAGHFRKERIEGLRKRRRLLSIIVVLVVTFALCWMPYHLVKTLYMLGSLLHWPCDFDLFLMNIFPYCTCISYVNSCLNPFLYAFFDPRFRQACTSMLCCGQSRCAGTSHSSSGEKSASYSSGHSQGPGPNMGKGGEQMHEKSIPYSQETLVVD

348 GPCRs [10] = target: T9, 348 GPCRs (Homo sapiens, UniProt P32238); settings: 10µM, Favipiravir 100μM
T9 sequence (P32238 1-428): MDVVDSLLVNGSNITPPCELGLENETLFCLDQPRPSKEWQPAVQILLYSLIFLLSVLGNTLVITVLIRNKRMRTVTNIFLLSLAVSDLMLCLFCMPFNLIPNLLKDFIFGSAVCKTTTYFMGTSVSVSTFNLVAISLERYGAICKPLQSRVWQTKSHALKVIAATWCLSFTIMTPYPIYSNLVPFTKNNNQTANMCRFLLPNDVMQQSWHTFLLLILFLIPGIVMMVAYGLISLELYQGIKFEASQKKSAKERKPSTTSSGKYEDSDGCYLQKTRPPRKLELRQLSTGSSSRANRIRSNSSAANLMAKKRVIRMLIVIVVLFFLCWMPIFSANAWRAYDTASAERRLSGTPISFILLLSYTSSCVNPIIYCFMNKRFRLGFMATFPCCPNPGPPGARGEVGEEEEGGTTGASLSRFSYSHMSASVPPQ

[11] = GPCR PAFR (platelet activating factor receptor), read-out: % GPCR activation compared to TPA
[12] = GPR182 (G protein-coupled receptor 182), read-out: % GPCR activation compared to TPA
[13] = 5-HT5A (5-hydroxytryptamine receptor 5A), read-out: % GPCR activation compared to TPA
[14] = HCA2, GPCR GPR109A (hydroxycarboxylic acid receptor 2 (HCA2)), read-out: % GPCR activation compared to TPA
[15] = GCGR (glucagon receptor), read-out: % GPCR activation compared to TPA
[16] = GRM4 (glutamate receptor, metabotropic 4), read-out: % GPCR activation compared to TPA
[17] = GPR133 (G protein-coupled receptor 133), read-out: % GPCR activation compared to TPA
[18] = GPCR MC4R (melanocortin 4 receptor), read-out: % GPCR activation compared to TPA
[19] = APLNR (apelin receptor), read-out: % GPCR activation compared to TPA
[20] = CCKAR (cholecystokinin A receptor), read-out: % GPCR activation compared to TPA
[21] = read-out: % GPCR activation compared to TPA, GPCR PAFR (platelet activating factor receptor)
[22] = read-out: % GPCR activation compared to TPA, GPR182 (G protein-coupled receptor 182)
[23] = read-out: % GPCR activation compared to TPA, 5-HT5A (5-hydroxytryptamine receptor 5A)
[24] = HCA2, read-out: % GPCR activation compared to TPA, GPCR GPR109A (hydroxycarboxylic acid receptor 2 (HCA2))
[25] = read-out: % GPCR activation compared to TPA, GCGR (glucagon receptor)
[26] = read-out: % GPCR activation compared to TPA, GRM4 (glutamate receptor, metabotropic 4)
[27] = read-out: % GPCR activation compared to TPA, GPR133 (G protein-coupled receptor 133)
[28] = read-out: % GPCR activation compared to TPA, GPCR MC4R (melanocortin 4 receptor)
[29] = read-out: % GPCR activation compared to TPA, APLNR (apelin receptor)
[30] = read-out: % GPCR activation compared to TPA, CCKAR (cholecystokinin A receptor)

T1 sequence (P25105 whole entry): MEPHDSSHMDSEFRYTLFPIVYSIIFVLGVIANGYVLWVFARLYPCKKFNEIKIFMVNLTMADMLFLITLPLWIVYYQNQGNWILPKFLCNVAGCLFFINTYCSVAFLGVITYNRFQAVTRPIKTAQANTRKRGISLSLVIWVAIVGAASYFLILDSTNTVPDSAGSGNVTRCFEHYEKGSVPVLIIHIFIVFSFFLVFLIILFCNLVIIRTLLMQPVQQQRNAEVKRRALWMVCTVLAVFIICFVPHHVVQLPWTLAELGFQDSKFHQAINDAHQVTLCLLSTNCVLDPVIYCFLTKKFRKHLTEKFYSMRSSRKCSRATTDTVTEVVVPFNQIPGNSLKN

Row | SMILES | activation at 10 µM (348 GPCRs [1]; [11]) | activation at 100 µM (348 GPCRs [2]; [12]) | activation at 100 µM (348 GPCRs [3]; [13]) | activation at 10 µM (348 GPCRs [4]; [14]) | activation at 100 µM (348 GPCRs [5]; [15]) | activation at 10 µM (348 GPCRs [6]; [16]) | activation at 100 µM (348 GPCRs [7]; [17]) | activation at 10 µM (348 GPCRs [8]; [18]) | activation at 10 µM (348 GPCRs [9]; [19]) | activation at 100 µM (348 GPCRs [10]; [20]) | activation at 10 µM (348 GPCRs [1]; [21]) | activation at 100 µM (348 GPCRs [2]; [22]) | activation at 100 µM (348 GPCRs [3]; [23]) | activation at 10 µM (348 GPCRs [4]; [24]) | activation at 100 µM (348 GPCRs [5]; [25]) | activation at 10 µM (348 GPCRs [6]; [26]) | activation at 100 µM (348 GPCRs [7]; [27]) | activation at 10 µM (348 GPCRs [8]; [28]) | activation at 10 µM (348 GPCRs [9]; [29]) | activation at 100 µM (348 GPCRs [10]; [30]) | further results
1 | N#C[C@@]1(c2ccc3c(N)ncnn23)O[C@H](CO)[C@@H](O)[C@H]1O [GS441524] | -1.62% | 0.124% | -3.98% | 0.689% | 0.277% | 1.52% | 3.32% | 2.19% | -3.07% | -2.84% |  |  |  |  |  |  |  |  |  |  | 
2 | CCC(CC)COC(=O)[C@H](C)N[P@](=O)(OC[C@H]1O[C@@](C#N)(c2ccc3c(N)ncnn23)[C@H](O)[C@@H]1O)Oc1ccccc1 [remdesivir] |  |  |  |  |  |  |  |  |  |  | 6.57% | 2.44% | -0.876% | 2.36% | 2.91% | -0.0103% | 3.45% | 3.44% | 3.68% | 1.15% | 
3 | CC(C)OC(=O)[C@H](C)N[P@](=O)(OC[C@H]1O[C@@H](n2ccc(=O)[nH]c2=O)[C@](C)(F)[C@@H]1O)Oc1ccccc1 [sofosbuvir] |  |  |  |  |  |  |  |  |  |  | -7.19% | 0.0893% | -0.524% | -29.6% | -0.806% | 2.56% | -82.3% | -2.6% | -5.57% | -1.34% | 
4 | NC(=O)c1nc(F)cnc1O [favipiravir, 6-fluoro-3-hydroxy-2-pyrazinecarboxamide] |  | -0.288% | -2.45% |  | 2.23% | 1.65% | 2.84% |  | -2.25% | -0.523% |  |  |  |  |  |  |  |  |  |  | activation at 100 µM (348 GPCRs [1]; GPCR PAFR (platelet activating factor receptor), 100μM, read-out: % GPCR activation compared to TPA): -0.53%; activation at 100 µM (348 GPCRs [4]; HCA2, GPCR GPR109A (hydroxycarboxylic acid receptor 2 (HCA2)), 100μM, read-out: % GPCR activation compared to TPA): 1.41%; activation at 100 µM (348 GPCRs [8]; GPCR MC4R (melanocortin 4 receptor), 100μM, read-out: % GPCR activation compared to TPA): 2.24%
5 | CC(C)C(=O)OC[C@H]1O[C@@H](n2ccc(NO)nc2=O)[C@H](O)[C@@H]1O [molnupiravir] | -6.72% | 0.0693% | -1.01% | -37.5% | 0.495% | -0.478% | -83.1% | -1.93% | -5.92% | 2.71% |  |  |  |  |  |  |  |  |  |  | 
